# Laboratory results as given in patent US10398751B2, “Pharmaceutical compositions of water soluble peptides with poor solubility in isotonic conditions and methods for their use” (STRONGBRIDGE IRELAND LIMITED, priority 2016, dated 2019).
# Like-named read-outs stand apart in the source and are kept apart here.
# Tests used:
# [1] = Comparative surface tension of peptides in water for injection; assay type: physicochemical; conditions: 10 mg/ml in WFI; for Effect of reduced surface tension (%): baseline WFI; for Water surface tension (dyne/cm): baseline WFI 52
# [2] = Emulsification of cottonseed oil and water for injection; assay type: physicochemical; conditions: 16.6 weight % cottonseed oil, 74.2 weight % WFI, 9.2 weight % peptide, room temperature
# Protocol: Based on its amphiphilic properties, veldoreotide acetate was evaluated by means of emulsion formulation. […] Thus, veldoreotide acetate may be considered a w/o ionic surfactant or hydrotrope with a hydrophilic lipophilic balance (HLB) of 6.
# The samples were mixed using 25G syringe and vortexed at room temperature.
# Veldoreotide was formulated as a water in oil emulsion using 80% (wt %) cottonseed oil, 20% (wt %) water for injection (WFI) and 1% (wt %) veldoreotide acetate. Specifically, 10 mg of veldoreotide acetate was dissolved in 200 uL WFI in a 5 mL glass vial, 800 mg of cottonseed oil was added and the resulting mixture was stirred under magnetic stirring at room temperature for 15 minutes at 1000 rpm. The emulsion was then viewed under the light microscope and stored under refrigeration. The resulting emulsion was stable and found to be injectable via 27G needle.
# [3] = cited from earlier work
# [4] = Density, pH and surface tension of solutions (capillary method); assay type: physicochemical
# Protocol: Tween 80 was used as a control surfactant for comparison. Densities were measured on 1 mL fixed volume samples. […] The effect of veldoreotide acetate on the pH of double distilled water (DDW) was the same at all veldoreotide acetate concentrations. The pH of DDW of 5.0 was reduced to pH 4.5. The effect of veldoreotide acetate on the density of DDW (starting density of DDW was 1.003 g/ml) was concentration dependent from 1.4 mg/ml to 21.5 mg/ml with density ranging from 0.986 to 0.998 g/ml respectively. However, at veldoreotide acetate concentrations of 45 and 102 mg/ml the density was increased above the starting density of DDW. […] The effect of veldoreotide acetate on the surface tension of DDW (starting surface tension was 64.9 dyne/cm) was consistent with veldoreotide acetate behaving as a peptide amphiphile (surfactant). The surface tension of DDW was reduced by veldoreotide acetate at maximum from 64.9 to 45 dyne/cm. In order to elucidate the meaning of this effect, Tween 80 was used as a reference surfactant. Other surfactants include Polexamer 188. The reduction of surface tension induced by Tween 80 was in the range of 40% (from 64.9 dyne/cm to about 39 dyne/cm), in comparison to veldoreotide acetate of 30% (from 64.9 dyne/cm to about 45 dyne/cm). Note that, under these experimental conditions; the effect of Tween 80 indicated a concentration-effect relationship. Whereas, the effect of veldoreotide acetate on the reduction of surface tension was at the same range for all concentrations tested.
# The data of table 4 show the surface activity of highly concentrated COR005 acetate (200 mg/ml), with or without additives in WFI, which emulates the preparation conditions of the primary emulsion of the microspheres. The results of Test 1 and 2 (Table 4) show the effect of COR005 acetate on the surface tension of water. When COR005 acetate is dissolved in water the surface tension is reduced by about 36%, from 68.5 dyne/cm for the water alone to 44 dyne/cm for the solution of water with CR005 acetate at 200 mg/ml.
"% change in surface tension compared to baseline ([4]; 7 mg/ml in DDW, 25° C.)","Density (g/ml) Weighted 1 ml ([4]; 7 mg/ml in DDW, 25° C.)","Surface tension (dyne/cm) capillary method ([4]; 7 mg/ml in DDW, 25° C.)","% change in surface tension compared to baseline ([4]; 14 mg/ml in DDW, 25° C.)","Density (g/ml) Weighted 1 ml ([4]; 14 mg/ml in DDW, 25° C.)","Surface tension (dyne/cm) capillary method ([4]; 14 mg/ml in DDW, 25° C.)","% change in surface tension compared to baseline ([4]; 28 mg/ml in DDW, 25° C.)","Density (g/ml) Weighted 1 ml ([4]; 28 mg/ml in DDW, 25° C.)","Surface tension (dyne/cm) capillary method ([4]; 28 mg/ml in DDW, 25° C.)","surface tension of DDW solution ([4]; DDW pH 5.0, 25° C., baseline 64.9 dyne/cm (text summary, concentration not specified))","reduction of surface tension of water ([4]; DDW, 25° C., baseline 64.9 dyne/cm)",Structure (SMILES),Effect of reduced surface tension (%) [1],Water surface tension (dyne/cm) [1],emulsification [2],"surface area ([3]; microspheres prepared from PLGA and octreotide acetate with 0 glucose (Biomaterials, 2004, 25, 1919-1927))","surface area ([3]; microspheres prepared from PLGA and octreotide acetate with 0.2% of glucose (Biomaterials, 2004))","surface area ([3]; microspheres prepared from PLGA and octreotide acetate with 1% of glucose (Biomaterials, 2004))"
–,–,–,–,–,–,–,–,–,–,–,CC(C)C[C@H](NC(=O)[C@@H](COC(C)(C)C)NC(=O)[C@H](Cc1ccc(O)cc1)NC(=O)[C@H](CO)NC(=O)[C@H](Cc1c[nH]c2ccccc12)NC(=O)[C@H](Cc1cnc[nH]1)NC(=O)[C@@H]1CCC(=O)N1)C(=O)N[C@@H](CCCNC(=N)N)C(=O)N1CCC[C@H]1C(=O)NNC(N)=O [Goserelin],−37%,33 dyne/cm,least potential for emulsion formation,–,–,–
–,–,–,–,–,–,–,–,–,–,–,C[C@@H](O)[C@@H]1NC(=O)[C@H](CCCCN)NC(=O)[C@@H](Cc2c[nH]c3ccccc23)NC(=O)[C@H](Cc2ccccc2)NC(=O)[C@@H](NC(=O)[C@H](N)Cc2ccccc2)CSSC[C@@H](C(=O)N[C@H](CO)[C@@H](C)O)NC1=O [Octreotide],−27%,38 dyne/cm,weak emulsification efficiency,4.4 m^2/g,4.7 m^2/g,4.9 m^2/g
−39%,0.9945 g/mL,39.6 dyne/cm,−39%,0.988 g/mL,39.35 dyne/cm,−40%,0.975 g/mL,38.8 dyne/cm,about 39 dyne/cm,~40%,"CCCCCCCC/C=C\CCCCCCCC(=O)OCCOCC(OCCO)C1OCC(OCCO)C1OCCO (centres unmarked) [Tween 80, reference compound]",–,–,–,–,–,–
